Test [1] addresses T1, His-tagged human recombinant DDR-2 kinase domain (His-TEV-DDR2 467-855 aa) (Homo sapiens, UniProt Q16832).
T1 construct: His-TEV-DDR2 467-855 aa
T1 sequence (Q16832 467-855): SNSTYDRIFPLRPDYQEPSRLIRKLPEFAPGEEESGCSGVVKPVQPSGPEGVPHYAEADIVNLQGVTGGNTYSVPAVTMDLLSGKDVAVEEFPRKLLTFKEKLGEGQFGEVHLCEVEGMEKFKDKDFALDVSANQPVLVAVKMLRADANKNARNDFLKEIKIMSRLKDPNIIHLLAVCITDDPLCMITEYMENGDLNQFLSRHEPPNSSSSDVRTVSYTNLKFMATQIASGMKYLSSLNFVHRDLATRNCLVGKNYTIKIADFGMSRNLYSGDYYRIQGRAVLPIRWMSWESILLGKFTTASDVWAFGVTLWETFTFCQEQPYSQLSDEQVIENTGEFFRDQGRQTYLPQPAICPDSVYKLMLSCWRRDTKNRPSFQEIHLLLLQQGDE
Kind of test: Autophosphorylation assay for biochemical activity testing of DDR2 (HTRF). The gist of the method:
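Phospho-tyrosine was detected by HTRF between XL665 anti-6His and cryptate anti-phosphotyrosine PT66 antibodies, using the emission ratio. Inhibition was referenced to the inhibitor-free reaction.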
Background: In TR-FRET formats the signal depends on donor and acceptor labels being close together.

The target in test [2] is T2, HEK293 transfected with human DDR2 (Homo sapiens, UniProt Q16832).
T2 construct: expressed in transfected cells; host or cells: HEK293 (PLT460F_(DDR2)-P7-1)
T2 sequence (Q16832 22-855): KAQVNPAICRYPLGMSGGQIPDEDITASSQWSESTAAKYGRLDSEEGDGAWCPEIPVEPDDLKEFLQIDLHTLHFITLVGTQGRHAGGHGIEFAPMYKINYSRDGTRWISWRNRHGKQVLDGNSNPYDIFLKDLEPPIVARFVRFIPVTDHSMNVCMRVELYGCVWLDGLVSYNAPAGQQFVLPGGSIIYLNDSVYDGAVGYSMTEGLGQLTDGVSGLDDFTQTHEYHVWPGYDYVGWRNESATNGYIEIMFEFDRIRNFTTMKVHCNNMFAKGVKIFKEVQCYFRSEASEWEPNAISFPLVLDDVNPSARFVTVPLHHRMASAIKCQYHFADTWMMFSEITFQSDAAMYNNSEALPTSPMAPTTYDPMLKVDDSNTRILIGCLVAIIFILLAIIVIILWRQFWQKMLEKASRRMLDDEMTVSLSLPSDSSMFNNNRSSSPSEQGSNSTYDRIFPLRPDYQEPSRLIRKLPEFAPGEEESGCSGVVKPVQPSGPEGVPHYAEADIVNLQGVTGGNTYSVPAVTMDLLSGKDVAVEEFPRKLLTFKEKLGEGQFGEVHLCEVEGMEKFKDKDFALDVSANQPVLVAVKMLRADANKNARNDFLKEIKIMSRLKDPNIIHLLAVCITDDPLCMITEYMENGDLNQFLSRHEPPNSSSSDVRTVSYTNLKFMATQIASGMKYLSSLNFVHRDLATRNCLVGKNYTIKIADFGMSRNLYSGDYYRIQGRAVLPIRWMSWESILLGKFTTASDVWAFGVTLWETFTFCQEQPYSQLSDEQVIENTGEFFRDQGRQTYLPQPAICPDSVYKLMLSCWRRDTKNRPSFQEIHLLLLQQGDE
Put plainly: Phospho-DDR2 cellular assay (collagen II induced DDR2 phosphorylation, ELISA). The test is classed as cell-based. The following applies: read-out: IC50 [p-DDR2]. Put shortly: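 Cells seeded 48 h in 10% FBS, serum-starved 8 h, then given compound (5% DMSO) with 50 μg/ml chicken collagen II for 16 h at 37 °C. Lysates captured on anti-DDR2 antibody plates; phospho-DDR2 detected with HRP anti-phosphotyrosine antibody by chemiluminescence.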
(In general: In an ELISA, binding on a coated surface is turned into a signal by an enzyme label.)

The mark [3] stands for this setting: biochemical DDR2 autophosphorylation.
[4] abbreviates: 4 nM DDR2 kinase domain, 150 μM ATP, 150 min at 22° C.
The mark [5] stands for this setting: HEK293 transfected with human DDR2, 50 μg/ml chicken collagen II, 16 h.

Molecules are shown by their SMILES. Like-named read-outs stand apart in the source and are kept apart here.

In general, IC50 refers to the midpoint of a concentration-inhibition curve. On to `CNC(=O)c1cc(Oc2ccc(CNC(=O)Nc3cc(C(F)(F)F)ccc3OCCNC(C)C)cc2)ccn1` [compound 172, 4-(4-{3-[2-(2-Isopropylamino-ethoxy)-5-trifluoromethyl-phenyl]-ureidomethyl}-phenoxy)-pyridine-2-carboxylic acid methylamide], for which the values for the concentration for half-maximal inhibition (IC50) in test [1] (setting [3]) and in test [2] (cellular phospho-DDR2) were 140 nM and 31 nM, respectively.

As for `CNC(=O)c1cc(Oc2ccc(CNC(=O)Nc3cc(C(F)(F)F)ccc3OCCN(C)C)cc2C)ccn1` [compound 150, 4-(4-{3-[2-(2-Dimethylamino-ethoxy)-5-trifluoromethyl-phenyl]-ureidomethyl}-2-methyl-phenoxy)-pyridine-2-carboxylic acid methylamide], the IC50 in test [1] (setting [3]) is 42 nM; in test [2] (cellular phospho-DDR2), 10 nM.

`CNC(=O)c1cc(Oc2ccc(CNC(=O)Nc3ccc(C)cn3)cc2)ccn1` [compound 210, 4-{4-[3-(5-Methyl-pyridin-2-yl)-ureidomethyl]-phenoxy}-pyridine-2-carboxylic acid methylamide]: the figures for the 50% inhibitory concentration (IC50) in test [1] (setting [3]) and in test [2] (cellular phospho-DDR2) were 2000 nM and 1500 nM, respectively.

In the case of `CNC(=O)c1cc(Oc2ccc(CNC(=O)Nc3cc(OC)c(Cl)cc3OC)cc2)ccn1` [compound 83, 4-{4-[3-(4-Chloro-2,5-dimethoxy-phenyl)-ureidomethyl]-phenoxy}-pyridine-2-carboxylic acid methylamide], the IC50 in test [1] (setting [3]) is 760 nM; in test [2] (cellular phospho-DDR2), 140 nM.

As to `CNCCOc1ccc(C(F)(F)F)cc1NC(=O)NCc1ccc(Oc2ccnc(C(=O)NC)c2)c(C)c1` [compound 146, 4-(2-Methyl-4-{3-[2-(2-methylamino-ethoxy)-5-trifluoromethyl-phenyl]-ureidomethyl}-phenoxy)-pyridine-2-carboxylic acid methylamide], the concentration for half-maximal inhibition (IC50) came out at 33 nM in test [1] (setting [3]) and 15 nM in test [2] (cellular phospho-DDR2).

For `CNC(=O)c1cc(Oc2ccc(CNC(=O)Nc3cc(C)c(Cl)cc3OC3CCNCC3)cc2C)ccn1` [compound 142, 4-(4-{3-[4-Chloro-5-methyl-2-(piperidin-4-yloxy)-phenyl]-ureidomethyl}-2-methyl-phenoxy)-pyridine-2-carboxylic acid methylamide], the IC50 amounted to 36 nM in test [1] (setting [3]) and 33 nM in test [2] (cellular phospho-DDR2).

Regarding `CNC(=O)c1cc(Oc2ccc(CNC(=O)Nc3cc(C)ccn3)cc2)ccn1` [compound 212, 4-{4-[3-(4-Methyl-pyridin-2-yl)-ureidomethyl]-phenoxy}-pyridine-2-carboxylic acid methylamide], the results for the IC50 in test [1] (setting [3]) and in test [2] (cellular phospho-DDR2) were 570 nM and 380 nM, respectively.

With `CNC(=O)c1cc(Oc2ccc(CNC(=O)Nc3cc(Cl)ccc3OC)cc2C)ccn1` [compound 100, 4-{4-[3-(5-Chloro-2-methoxy-phenyl)-ureidomethyl]-2-methyl-phenoxy}-pyridine-2-carboxylic acid methylamide], the IC50 in test [1] (setting [3]) is 120 nM; in test [2] (cellular phospho-DDR2), 25 nM.

Regarding `CNC(=O)c1cc(Oc2ccc(CNC(=O)Nc3ccnc(Cl)c3)cc2)ccn1` [compound 89, 4-{4-[3-(2-Chloro-pyridin-4-yl)-ureidomethyl]-phenoxy}-pyridine-2-carboxylic acid methylamide], the half-maximal inhibitory concentration (IC50) was 1000 nM in test [1] (setting [3]) and 1450 nM in test [2] (cellular phospho-DDR2).

As for `CNC(=O)c1cc(Oc2ccc(CNC(=O)Nc3cc(C(F)(F)F)cnc3Cl)cc2)ccn1` [compound 24], the results for the IC50 in test [1] (setting [4]) and in test [2] (setting [5]) were 130 nM and 58 nM, respectively.

`CNC(=O)c1cc(Oc2ccc(CNC(=O)Nc3cc(C)c(Cl)cc3OC)cc2)ccn1` [compound 78, 4-{4-[3-(4-Chloro-2-methoxy-5-methyl-phenyl)-ureidomethyl]-phenoxy}-pyridine-2-carboxylic acid methylamide]: the results for the half-inhibitory concentration (IC50) in test [1] (setting [3]) and in test [2] (cellular phospho-DDR2) were 100 nM and 24 nM, respectively.

With `CNC(=O)c1cc(Oc2ccc(CNC(=O)Nc3cc(Cl)c(C)cc3OCCN3CCNCC3)cc2)ccn1` [compound 179, 4-(4-{3-[5-Chloro-4-methyl-2-(2-piperazin-1-yl-ethoxy)-phenyl]-ureidomethyl}-phenoxy)-pyridine-2-carboxylic acid methylamide], the concentration for half-maximal inhibition (IC50) in test [1] (setting [3]) came out at 160 nM; in test [2] (cellular phospho-DDR2), 38 nM.

For the compound `CNC(=O)c1cc(Oc2ccc(CNC(=O)Nc3cc(C(F)(F)F)ccc3OCCN)cc2C)ccn1` [compound 155, 4-(4-{3-[2-(2-Amino-ethoxy)-5-trifluoromethyl-phenyl]-ureidomethyl}-2-methyl-phenoxy)-pyridine-2-carboxylic acid methylamide], the IC50 in test [1] (setting [3]) worked out at 40 nM; in test [2] (cellular phospho-DDR2), 18 nM.

As to `CNC(=O)c1cc(Oc2ccc(CNC(=O)Nc3cc(C)c(Cl)cc3OCCCN(C)C)cc2C)ccn1` [compound 163, 4-(4-{3-[4-Chloro-2-(3-dimethylamino-propoxy)-5-methyl-phenyl]-ureidomethyl}-2-methyl-phenoxy)-pyridine-2-carboxylic acid methylamide], the values for the IC50 in test [1] (setting [3]) and in test [2] (cellular phospho-DDR2) were 40 nM and 16 nM, respectively.

Turning to `CNCCOc1ccccc1NC(=O)NCc1ccc(Oc2ccnc(C(=O)NC)c2)cc1` [compound 169, 4-(4-{3-[2-(2-Methylamino-ethoxy)-phenyl]-ureidomethyl}-phenoxy)-pyridine-2-carboxylic acid methylamide], the IC50 worked out at 2800 nM in test [1] (setting [3]) and 1900 nM in test [2] (cellular phospho-DDR2).

For `CNC(=O)c1cc(Oc2ccc(CNC(=O)Nc3cc(C)c(Cl)cc3OCCN(C)C)cc2C)ccn1` [compound 139, 4-(4-{3-[4-Chloro-2-(2-dimethylamino-ethoxy)-5-methyl-phenyl]-ureidomethyl}-2-methyl-phenoxy)-pyridine-2-carboxylic acid methylamide], the half-maximal inhibitory concentration (IC50) stood at 26 nM in test [1] (setting [3]) and 18 nM in test [2] (cellular phospho-DDR2).

For `CNC(=O)c1cc(Oc2ccc(CNC(=O)Nc3cc(C(F)(F)F)c(Cl)cc3OC3CCNCC3)cc2)ccn1` [compound 130, 4-(4-{3-[4-Chloro-2-(piperidin-4-yloxy)-5-trifluoromethyl-phenyl]-ureidomethyl}-phenoxy)-pyridine-2-carboxylic acid methylamide], the IC50 in test [1] (setting [3]) was 34 nM; in test [2] (cellular phospho-DDR2), 24 nM.

For the compound `CNC(=O)c1cc(Oc2ccc(CNC(=O)Nc3cc(C(F)(F)F)ccc3OCCN3CCNCC3)cc2)ccn1` [compound 112, 4-(4-{3-[2-(2-Piperazin-1-yl-ethoxy)-5-trifluoromethyl-phenyl]-ureidomethyl}-phenoxy)-pyridine-2-carboxylic acid methylamide], the IC50 in test [1] (setting [3]) was found to be 130 nM; in test [2] (cellular phospho-DDR2), 47 nM.

In the case of `CNC(=O)c1cc(Oc2ccc(CNC(=O)Nc3cc(C(F)(F)F)ccc3OCC(C)(C)N)cc2)ccn1` [compound 160, 4-(4-{3-[2-(2-Amino-2-methyl-propoxy)-5-trifluoromethyl-phenyl]-ureidomethyl}-phenoxy)-pyridine-2-carboxylic acid methylamide], the IC50 was 360 nM in test [1] (setting [3]) and 95 nM in test [2] (cellular phospho-DDR2).

Consider `O=C(Nc1ccc(Cc2nc3cc[nH]c(=O)c3[nH]2)cc1)Nc1cccc(C(F)(F)F)c1` [compound 4], for which the IC50 in test [1] (setting [4]) stood at 25 nM; in test [2] (setting [5]), 320 nM.

In the case of `CNC(=O)c1cc(Oc2ccc(CNC(=O)Nc3cc(C(F)(F)F)c(Cl)cc3OCCN3CCNCC3)cc2)ccn1` [compound 128, 4-(4-{3-[4-Chloro-2-(2-piperazin-1-yl-ethoxy)-5-trifluoromethyl-phenyl]-ureidomethyl}-phenoxy)-pyridine-2-carboxylic acid methylamide], the results for the IC50 in test [1] (setting [3]) and in test [2] (cellular phospho-DDR2) were 91 nM and 63 nM, respectively.

Source of the values: US20150225369A1, “DDR2 INHIBITORS FOR THE TREATMENT OF OSTEOARTHRITIS” (Merck Patent GmbH, priority 2012, published 2015).
